According to paper PMC7339578, “Multiple circulating alkaloids and saponins from intravenous Kang-Ai injection inhibit human cytochrome P450 and UDP-glucuronosyltransferase isozymes: potential drug–drug interactions” (Chinese Medicine, 2020):
Where two headings read alike, the source gives them in different places. Values belong to the molecule of their own block, whether it stands above or below them.

How the values were obtained:
CYP2C8 = target: T1, CYP2C8 (Homo sapiens, UniProt P10632); assay: Inhibition of recombinant CYP2C8 (probe paclitaxel); format: in vitro ADME; conditions: recombinant isozyme; mean ± SD of triplicate; unit not given (IC50 classes in μM); read-out: IC50 towards CYP2C8
T1 sequence (P10632 1-490): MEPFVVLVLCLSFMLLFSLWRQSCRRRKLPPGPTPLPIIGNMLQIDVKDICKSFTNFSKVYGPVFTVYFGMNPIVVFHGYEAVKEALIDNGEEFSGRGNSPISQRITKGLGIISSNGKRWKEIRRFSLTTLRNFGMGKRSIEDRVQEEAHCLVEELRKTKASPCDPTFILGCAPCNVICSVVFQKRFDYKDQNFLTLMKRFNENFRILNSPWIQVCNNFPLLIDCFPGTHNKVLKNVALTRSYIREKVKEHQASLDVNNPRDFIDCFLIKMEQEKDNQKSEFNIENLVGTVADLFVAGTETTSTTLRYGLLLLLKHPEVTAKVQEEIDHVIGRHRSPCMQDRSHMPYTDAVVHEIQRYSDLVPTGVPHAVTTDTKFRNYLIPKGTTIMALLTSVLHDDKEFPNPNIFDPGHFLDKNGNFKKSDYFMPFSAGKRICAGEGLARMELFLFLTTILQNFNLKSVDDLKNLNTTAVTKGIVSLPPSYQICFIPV
Procedure: (§1) In this study, phenacetin (100 μM), coumarin (100 μM), bupropion (100 μM), paclitaxel (60 μM), tolbutamide (200 μM), mephenytoin (100 μM), chlorzoxazone (200 μM) and nifedipine (40 μM) have been used as the probe substrates for CYP1A2, 2A6, 2B6, 2C8, 2C9, 2C19, 2E1 and 3A4, respectively.

[1] = Stability tests of analytes in rat plasma QC samples; format: in vitro ADME; conditions: rat plasma
Procedure: […] The dilution integrity was investigated by analyzing six replicate samples with each analyte, and each analyte were diluted 10-fold with blank rat matrix. Furthermore, the diluted samples were analyzed using freshly prepared calibration curve to calculate RE and RSD, which should be no more than ± 15% as criterion.

[2] = Urinary (renal) excretion in rats after a 30-min infusion of Kang-Ai injection; format: in vivo, Sprague–Dawley rats; conditions: Kang-Ai injection 6 mL/kg iv; for CL renal: male, Sprague-Dawley, urine and plasma, rat, read-out: CLR (renal excretory clearance) (converted); for fe-U,0–12h (fraction of dose excreted into urine): rat urine 0–12 h
Summary of the method: (§2)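 Urine collected in metabolic cages at 0–4, 4–8, 8–12 h and bile at 0–3, 3–6, 6–9, 9–12 h after infusion start, weighed and frozen at −80 °C. Non-compartmental analysis; CLR and CLB as cumulative urinary or biliary amount divided by plasma AUC0-∞, fe-U and fe-B as cumulative amount/dose; mean ± SD (n = 3).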

[3] = Biliary (hepatobiliary) excretion in rats after a 30-min infusion of Kang-Ai injection; format: in vivo, Sprague–Dawley rats; conditions: Kang-Ai injection 6 mL/kg iv
Summary of the method: as §2

CYP2C9 = CYP2C9 (Homo sapiens, UniProt P11712); assay: Inhibition of recombinant CYP2C9 (probe tolbutamide); format: in vitro ADME; conditions: for IC50: read-out: IC50 towards CYP2C9
Procedure: as §1

[4] = Plasma pharmacokinetics in rats after a 30-min intravenous infusion of Kang-Ai injection; format: in vivo, Sprague–Dawley rats; conditions: male, Sprague-Dawley, 30-min iv infusion of Kang-Ai injection 6 mL/kg; for clearance / Vd: plasma, rat, Table 1 unit; for clearance: read-out: CLtot, p (converted); for Vd: read-out: VSS; for Cmax / half-life: rat plasma; for Cmax: read-out: Cmax; for half-life: read-out: t1/2 (converted)
Summary of the method: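 Fasted male Sprague–Dawley rats (250 ± 20 g) got a single 30-min tail-vein infusion of Kang-Ai injection at 6 mL/kg. Jugular blood was sampled from 5 min to 12 h for plasma. Parameters came from non-compartmental analysis (trapezoidal AUC), n = 3.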

[5] = recombinant isozyme, mean ± SD of triplicate, unit not given (IC50 classes in μM)

Sequence of CYP2C9 (P11712 whole entry): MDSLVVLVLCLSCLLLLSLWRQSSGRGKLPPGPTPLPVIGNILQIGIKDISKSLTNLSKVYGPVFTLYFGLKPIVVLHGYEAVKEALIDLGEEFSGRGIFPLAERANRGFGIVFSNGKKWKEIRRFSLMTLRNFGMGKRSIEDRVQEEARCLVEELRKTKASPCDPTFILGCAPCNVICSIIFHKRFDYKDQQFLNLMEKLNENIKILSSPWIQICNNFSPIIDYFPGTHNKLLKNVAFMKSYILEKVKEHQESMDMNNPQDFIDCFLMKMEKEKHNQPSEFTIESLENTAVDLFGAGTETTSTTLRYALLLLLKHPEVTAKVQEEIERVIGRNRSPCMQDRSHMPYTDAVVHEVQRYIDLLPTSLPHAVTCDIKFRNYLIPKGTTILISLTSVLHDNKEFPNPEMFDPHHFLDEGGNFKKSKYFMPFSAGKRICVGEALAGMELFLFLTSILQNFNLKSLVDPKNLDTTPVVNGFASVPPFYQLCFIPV

SMILES: CC(C)=CCC[C@](C)(O[C@@H]1O[C@H](CO)[C@@H](O)[C@H](O)[C@H]1O)[C@H]1CC[C@]2(C)[C@@H]1[C@H](O)C[C@@H]1[C@@]3(C)CC[C@H](O)C(C)(C)[C@@H]3[C@@H](O[C@@H]3O[C@H](CO)[C@@H](O)[C@H](O)[C@H]3O)C[C@]12C [Compound C6, Ginsenoside Rg1]
IC50 (CYP2C8): > 100 µM | At -80 °C for 48 h, Mean±SD ([1]; nominal conc. 40 nM): 37.29 ± 1.37 nM | At -80 °C for 48 h, RE ([1]; nominal conc. 40 nM): -10.20% | Extracted samples at 8 °C for 18 h, Mean±SD ([1]; nominal conc. 40 nM): 35.69 ± 0.56 nM | Extracted samples at 8 °C for 18 h, RE ([1]; nominal conc. 40 nM): -12.18% | Short-term stability at room temperature for 6 h, Mean±SD ([1]; nominal conc. 40 nM): 38.60 ± 1.14 nM | Short-term stability at room temperature for 6 h, RE ([1]; nominal conc. 40 nM): -6.74% | Three freeze-thaw cycles (-80 °C ↔ 23 °C), Mean±SD ([1]; nominal conc. 40 nM): 39.64 ± 2.41 nM | Three freeze-thaw cycles (-80 °C ↔ 23 °C), RE ([1]; nominal conc. 40 nM): -7.72% | At -80 °C for 48 h, Mean±SD ([1]; nominal conc. 200 nM): 209.85 ± 12.74 nM | At -80 °C for 48 h, RE ([1]; nominal conc. 200 nM): 10.34% | Extracted samples at 8 °C for 18 h, Mean±SD ([1]; nominal conc. 200 nM): 197.72 ± 17.37 nM | Extracted samples at 8 °C for 18 h, RE ([1]; nominal conc. 200 nM): 8.81% | Short-term stability at room temperature for 6 h, Mean±SD ([1]; nominal conc. 200 nM): 204.22 ± 5.64 nM | Short-term stability at room temperature for 6 h, RE ([1]; nominal conc. 200 nM): 4.83% | Three freeze-thaw cycles (-80 °C ↔ 23 °C), Mean±SD ([1]; nominal conc. 200 nM): 189.03 ± 9.20 nM | Three freeze-thaw cycles (-80 °C ↔ 23 °C), RE ([1]; nominal conc. 200 nM): -10.01% | At -80 °C for 48 h, Mean±SD ([1]; nominal conc. 800 nM): 800.01 ± 77.30 nM | At -80 °C for 48 h, RE ([1]; nominal conc. 800 nM): 11.14% | Extracted samples at 8 °C for 18 h, Mean±SD ([1]; nominal conc. 800 nM): 826.40 ± 51.24 nM | Extracted samples at 8 °C for 18 h, RE ([1]; nominal conc. 800 nM): 10.42% | Short-term stability at room temperature for 6 h, Mean±SD ([1]; nominal conc. 800 nM): 737.30 ± 34.89 nM | Short-term stability at room temperature for 6 h, RE ([1]; nominal conc. 800 nM): -11.11% | Three freeze-thaw cycles (-80 °C ↔ 23 °C), Mean±SD ([1]; nominal conc. 800 nM): 739.78 ± 39.17 nM | Three freeze-thaw cycles (-80 °C ↔ 23 °C), RE ([1]; nominal conc. 800 nM): -11.08% | CL renal [2]: 1.04 mL/min | fe-U,0–12h (fraction of dose excreted into urine) [2]: 39.79 ± 5.88% | fraction of dose excreted unchanged via renal plus hepatobiliary excretion (sum of fe-U and fe-B) ([2]; rat urine + bile, 0–12 h): ~60% | fe-B,0–12h (fraction of dose excreted into bile) ([3]; rat bile 0–12 h): 20.71 ± 3.62% | IC50 (CYP2C9; [5]): > 100 µM | clearance [4]: 2.61 mL/min | Vd [4]: 0.144 ± 0.0642 L | Cmax [4]: 1570 ± 175 nM | half-life [4]: 1.2 ± 1.23 h

IC50 (CYP2C8): > 100 µM | At -80 °C for 48 h, Mean±SD ([1]; nominal conc. 20 nM): 20.64 ± 1.63 nM | At -80 °C for 48 h, RE ([1]; nominal conc. 20 nM): 8.70% | Extracted samples at 8 °C for 18 h, Mean±SD ([1]; nominal conc. 20 nM): 17.96 ± 0.32 nM | Extracted samples at 8 °C for 18 h, RE ([1]; nominal conc. 20 nM): -11.74% | Short-term stability at room temperature for 6 h, Mean±SD ([1]; nominal conc. 20 nM): 20.30 ± 1.81 nM | Short-term stability at room temperature for 6 h, RE ([1]; nominal conc. 20 nM): 9.00% | Three freeze-thaw cycles (-80 °C ↔ 23 °C), Mean±SD ([1]; nominal conc. 20 nM): 19.99 ± 1.88 nM | Three freeze-thaw cycles (-80 °C ↔ 23 °C), RE ([1]; nominal conc. 20 nM): -10.85% | At -80 °C for 48 h, Mean±SD ([1]; nominal conc. 100 nM): 94.32 ± 8.04 nM | At -80 °C for 48 h, RE ([1]; nominal conc. 100 nM): -13.46% | Extracted samples at 8 °C for 18 h, Mean±SD ([1]; nominal conc. 100 nM): 101.02 ± 12.87 nM | Extracted samples at 8 °C for 18 h, RE ([1]; nominal conc. 100 nM): -13.83% | Short-term stability at room temperature for 6 h, Mean±SD ([1]; nominal conc. 100 nM): 91.65 ± 3.42 nM | Short-term stability at room temperature for 6 h, RE ([1]; nominal conc. 100 nM): -12.30% | Three freeze-thaw cycles (-80 °C ↔ 23 °C), Mean±SD ([1]; nominal conc. 100 nM): 108.29 ± 6.26 nM | Three freeze-thaw cycles (-80 °C ↔ 23 °C), RE ([1]; nominal conc. 100 nM): 12.24% | At -80 °C for 48 h, Mean±SD ([1]; nominal conc. 400 nM): 428.49 ± 29.97 nM | At -80 °C for 48 h, RE ([1]; nominal conc. 400 nM): 12.25% | Extracted samples at 8 °C for 18 h, Mean±SD ([1]; nominal conc. 400 nM): 409.55 ± 29.87 nM | Extracted samples at 8 °C for 18 h, RE ([1]; nominal conc. 400 nM): 9.12% | Short-term stability at room temperature for 6 h, Mean±SD ([1]; nominal conc. 400 nM): 388.96 ± 18.81 nM | Short-term stability at room temperature for 6 h, RE ([1]; nominal conc. 400 nM): -6.00% | Three freeze-thaw cycles (-80 °C ↔ 23 °C), Mean±SD ([1]; nominal conc. 400 nM): 441.95 ± 3.33 nM | Three freeze-thaw cycles (-80 °C ↔ 23 °C), RE ([1]; nominal conc. 400 nM): 11.44% | CL renal [2]: 0.00633 mL/min | fe-U,0–12h (fraction of dose excreted into urine) [2]: 6.41 ± 1.47% | detection in bile ([3]; rat bile): not detected in bile | inhibition type (smallest AIC and SC) (CYP2C9; CYP2C9): Noncompetitive inhibition | Ki (CYP2C9; CYP2C9, competitive model): 8.2 ± 1 µM | Ki (CYP2C9; CYP2C9, mixed-type model): 18.8 ± 4.3 µM | α (CYP2C9; CYP2C9, mixed-type model): 0.7 ± 0.3 | Ki (CYP2C9; CYP2C9, noncompetitive model): 16.1 ± 0.9 µM | Cmax/Ki ([I]/Ki) (CYP2C9; CYP2C9, selected model, rat plasma Cmax): 0.03 | IC50 (CYP2C9; [5]): 8.8 ± 3.2 µM | IC50 (CYP2C9; tolbutamide 200 μM): 8.81 µM | clearance [4]: 0.103 mL/min | Vd [4]: 0.047 ± 0.0199 L | Cmax [4]: 497 ± 75.1 nM | half-life [4]: 7.22 ± 7.03 h
SMILES: CC(C)=CCC[C@](C)(O[C@@H]1O[C@H](CO[C@@H]2O[C@H](CO)[C@@H](O)[C@H](O)[C@H]2O)[C@@H](O)[C@H](O)[C@H]1O)[C@H]1CC[C@]2(C)[C@@H]1[C@H](O)C[C@@H]1[C@@]3(C)CC[C@H](O[C@@H]4O[C@H](CO)[C@@H](O)[C@H](O)[C@H]4O[C@@H]4O[C@H](CO)[C@@H](O)[C@H](O)[C@H]4O)C(C)(C)[C@@H]3CC[C@]12C [Compound D5, Ginsenoside Rb1]
